Test results taken from ChEMBL document CHEMBL5537150, “Synthesis of melampomagnolide B derivatives as potential anti-Triple Negative Breast Cancer agents” (Eur J Med Chem, 2024).

Legend:
Format in all cases: functional, cell-based
MDA-MB-231 = assay: Antiproliferative activity against human MDA-MB-231 cells assessed as inhibition of cell growth incubated for 72 hrs by MTT assay; conditions: MDA-MB-231, 72 h
4T1 = assay: Antiproliferative activity against mouse 4T1 cells assessed as inhibition of cell growth incubated for 72 hrs by MTT assay; conditions: 4T1, 72 h
SUM-159-PT = assay: Antiproliferative activity against human SUM159 cells assessed as inhibition of cell growth incubated for 72 hrs by MTT assay
MCF7 = assay: Antiproliferative activity against human MCF7 cells assessed as inhibition of cell growth incubated for 72 hrs by MTT assay; conditions: MCF7, 72 h
MDA-MB-468 = assay: Antiproliferative activity against human MDA-MB-468 cells assessed as inhibition of cell growth incubated for 72 hrs by MTT assay; conditions: MDA-MB-468, 72 h

| IC50 (MDA-MB-231) | SMILES | other results |
| --- | --- | --- |
| 8.52 µM | C=C1C(=O)O[C@H]2[C@H]1C(COC(=O)CCCC(=O)Oc1ccc(-c3cc(=S)ss3)cc1)C/C=C\CC[C@@]1(C)O[C@@H]21 (some centres not stated) |  |
| 2.91 µM | C=C1C(=O)O[C@H]2[C@H]1C(COC(=O)c1ccccc1C(=O)Oc1ccc(-c3cc(=S)ss3)cc1)C/C=C\CC[C@@]1(C)O[C@@H]21 (some centres not stated) |  |
| 6.2 µM | C=C1C(=O)O[C@H]2[C@H]1C(COC(=O)CCCCC(=O)Oc1ccc(-c3cc(=S)ss3)cc1)C/C=C\CC[C@@]1(C)O[C@@H]21 (some centres not stated) |  |
| 2.35 µM | C=C1C(=O)O[C@H]2[C@H]1CC/C(C(=O)OCCOc1ccc(-c3cc(=S)ss3)cc1)=C\CC[C@@]1(C)O[C@@H]21 |  |
| 35.8 µM | C=C1C(=O)O[C@H]2[C@H]1C(COC(=O)CC1(CC(=O)O)CCCC1)C/C=C\CC[C@@]1(C)O[C@@H]21 (some centres not stated) |  |
| 3.84 µM | C=C1C(=O)O[C@H]2[C@H]1CC/C(CO)=C\CC[C@@]1(C)O[C@@H]21 | IC50 (4T1): 5.88 µM; IC50 (SUM-159-PT): 7.45 µM; IC50 (MCF7): 6.76 µM; IC50 (MDA-MB-468): 20 µM |
| > 50 µM | C=C1C(=O)O[C@H]2[C@H]1C(COC(=O)CCCC(=O)O)C/C=C\CC[C@@]1(C)O[C@@H]21 (some centres not stated) |  |
| > 50 µM | C=C1C(=O)O[C@H]2[C@H]1CC/C(C(=O)O)=C\CC[C@@]1(C)O[C@@H]21 |  |
| 1.39 µM | C=C1C(=O)O[C@H]2[C@H]1CC/C(C(=O)Oc1ccc(-c3cc(=S)ss3)cc1)=C\CC[C@@]1(C)O[C@@H]21 |  |
| 2.09 µM | C=C1C(=O)O[C@H]2[C@H]1CC/C(C(=O)OCCCOc1ccc(-c3cc(=S)ss3)cc1)=C\CC[C@@]1(C)O[C@@H]21 |  |
| 6.11 µM | C=C1C(=O)O[C@H]2[C@H]1C(COC(=O)/C=C/c1ccc(OCc3ccc(-c4cc(=S)ss4)cc3)cc1)C/C=C\CC[C@@]1(C)O[C@@]21C (some centres not stated) |  |
| 4.34 µM | C=C1C(=O)O[C@H]2[C@H]1C(COC(=O)CCC(=O)Oc1ccc(-c3cc(=S)ss3)cc1)C/C=C\CC[C@@]1(C)O[C@@H]21 (some centres not stated) |  |
| > 50 µM | C=C1C(=O)O[C@H]2[C@H]1C(COC(=O)c1ccccc1C(=O)O)C/C=C\CC[C@@]1(C)O[C@@H]21 (some centres not stated) |  |
